Patent US8268827B2, “Pyridazinone derivatives as PARP inhibitors” (Istituto di Ricerche di Biologia Molecolare P. Angeletti …, priority 2007, dated 2012)
Structures can show the parent of a compound that is named as a salt.

Assays:
PARP-1 = target: T1, PARP-1 (Homo sapiens, UniProt P09874); experiment: PARP-1 SPA assay; format: biochemical
T1 construct: purchased Trevigen 4668-500-01
Procedure: Assay buffer: 100 mM Tris pH 8, 4 mM MgCl2, 4 mM Spermine, 200 mM KCl, 0.04% Nonidet P-40.
Nicotinamide-adenine dinucleotide (NAD)/DNA Mix: [^3H-NAD] (250 uCi/ml, 0.4 ul, Perkin-Elmer NET-443H), NAD (1.5 mM, 0.05 ul, SIGMA N-1511), Biotinylated-NAD (250 uM, 0.03 ul, Trevigen 4670-500-01), Activated calf thymus (1 mg/ml, 0.05 ul, Amersham Biosciences 27-4575), H2O (to 10 ul).
Developing Mix: Streptavidin SPA beads (5 mg/ml, Amersham Biosciences RPNQ 0007) dissolved in 500 mM EDTA.
The reaction is performed in 96-well microplate with a final volume of 50 uL/well. Add 5 ul 5% DMSO/compound solution, add enzyme mix (35 ul), start the reaction by adding NAD/DNA mix (10 uL) and incubate for 2 hrs at RT. Stop the reaction by adding developing mix (25 ul) and incubate 15 min at RT. Measure using a Packard TOP COUNT instrument.

[1] = system: BRCA-1 silenced HeLa cells (HeLa shBRCA1-GFP); experiment: Proliferation assay in BRCA-1 silenced HeLa cells; format: cell-based; details: Homo sapiens; BRCA1 silenced HeLa cells, 168 hours; read-out: CC50 in the BRCA1 silenced HeLa cells
Outline: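 Antiproliferative effect was read by Celltiter Blue fluorescence after 168 h of compound treatment at 37° C., 5% CO2. Cells were matched HeLa pairs, BRCA1-shRNA (>80% silenced, GFP) versus non-shRNA vector control, in DMEM with 10% FCS.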

T1 sequence (P09874 whole entry): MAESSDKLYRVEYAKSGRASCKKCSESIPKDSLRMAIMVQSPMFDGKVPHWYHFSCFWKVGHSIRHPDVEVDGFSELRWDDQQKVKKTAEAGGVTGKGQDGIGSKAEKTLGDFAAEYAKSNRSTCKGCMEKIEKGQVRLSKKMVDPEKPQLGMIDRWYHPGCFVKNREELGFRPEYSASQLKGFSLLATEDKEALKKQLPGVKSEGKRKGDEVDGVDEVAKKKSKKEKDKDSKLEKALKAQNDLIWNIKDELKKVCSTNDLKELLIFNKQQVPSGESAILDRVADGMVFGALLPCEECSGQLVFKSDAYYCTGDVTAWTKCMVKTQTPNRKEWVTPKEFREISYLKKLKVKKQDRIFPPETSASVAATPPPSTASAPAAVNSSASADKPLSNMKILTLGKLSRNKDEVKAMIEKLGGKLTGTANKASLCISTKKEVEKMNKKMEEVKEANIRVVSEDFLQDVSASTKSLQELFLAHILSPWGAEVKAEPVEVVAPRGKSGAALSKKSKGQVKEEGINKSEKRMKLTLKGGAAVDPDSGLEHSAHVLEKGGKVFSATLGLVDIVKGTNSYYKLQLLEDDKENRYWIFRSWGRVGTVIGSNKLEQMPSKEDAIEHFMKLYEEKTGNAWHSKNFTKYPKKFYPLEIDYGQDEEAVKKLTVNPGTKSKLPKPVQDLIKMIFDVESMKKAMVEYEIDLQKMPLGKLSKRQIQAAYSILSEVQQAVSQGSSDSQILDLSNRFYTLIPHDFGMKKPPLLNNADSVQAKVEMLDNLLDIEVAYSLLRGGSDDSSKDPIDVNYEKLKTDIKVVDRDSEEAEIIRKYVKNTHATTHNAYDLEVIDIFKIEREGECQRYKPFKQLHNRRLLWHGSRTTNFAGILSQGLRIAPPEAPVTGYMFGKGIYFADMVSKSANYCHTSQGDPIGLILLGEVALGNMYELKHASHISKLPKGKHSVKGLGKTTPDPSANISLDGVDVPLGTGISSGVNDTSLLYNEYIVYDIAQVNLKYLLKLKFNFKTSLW

For `Cc1c(Cc2ccc(F)c(C(=O)N3CC(=O)N(c4ccccc4)C(C)C3)c2)n[nH]c(=O)c1C` (racemic) [Example 78 (LL4), 3-[4-Fluoro-3-(3-methyl-5-oxo-4-phenyl-piperazine-1-carbonyl)-benzyl]-4,5-dimethyl-6-oxo-1,6-dihydro-pyridazin-1-ium trifluoroacetate], the IC50 (PARP-1) was less than 5 nM and the CC50 [1] was less than 50 nM.
Compound `Cc1c(Cc2ccc(F)c(C(=O)N3CC(=O)N(c4ccc(F)cc4)C(C)C3)c2)n[nH]c(=O)c1C` (racemic) [Example 79, 3-{4-Fluoro-3-[4-(4-fluoro-phenyl)-3-methyl-5-oxo-piperazine-1-carbonyl]-benzyl}-4,5-dimethyl-6-oxo-1,6-dihydro-pyridazin-1-ium trifluoroacetate] has an IC50 (PARP-1) of less than 5 nM and a CC50 [1] of less than 50 nM.
With `C[C@@H]1CCC[C@H]2CN(C(=O)c3cc(Cc4cc(C(F)(F)F)c(=O)[nH]n4)ccc3F)CC(=O)N21` (racemic) [Example 87, 6-{4-Fluoro-3-[(cis-6-methyl-4-oxooctahydro-2H-pyrido[1,2-a]pyrazin-2-yl)carbonyl]benzyl}-3-oxo-4-(trifluoromethyl)-2,3-dihydropyridazin-1-ium trifluoroacetate] the IC50 (PARP-1) was 5 to 25 nM and the CC50 [1] was less than 50 nM.
For `O=C(c1cc(Cc2cc(C(F)(F)F)c(=O)[nH]n2)ccc1F)N1CC(=O)N2CCCCC2C1` (racemic) [Example 91, 2-(2-Fluoro-5-{[6-oxo-5-(trifluoromethyl)-1,6-dihydropyridazin-3-yl]methyl}benzoyl)octahydro-4H-pyrido[1,2-a]pyrazin-4-one], the IC50 (PARP-1) was 5 to 25 nM and the CC50 [1] was 50 to 500 nM.
`Cc1c(Cc2ccc(F)c(C(=O)N3CCN([C@H]4CC[C@@H](F)C4)C(=O)C3)c2)n[nH]c(=O)c1C` (relative stereo) [Example 80, cis-3-{4-Fluoro-3-[4-(3-fluoro-cyclopentyl)-3-oxo-piperazine-1-carbonyl]-benzyl}-4,5-dimethyl-6-oxo-1,6-dihydro-pyridazin-1-ium trifluoroacetate] showed an IC50 (PARP-1) of less than 5 nM and a CC50 [1] of 50 to 500 nM.
Work on `Cc1c(Cc2ccc(F)c(C(=O)N3CC(=O)N(c4ccccc4)[C@@H](C)C3)c2)n[nH]c(=O)c1C` (single isomer, unassigned) [78 (LL4A)] yielded an IC50 (PARP-1) of 5 to 25 nM and a CC50 [1] of 50 to 500 nM.
Work on `O=C(c1cc(Cc2cc(C(F)(F)F)c(=O)[nH]n2)ccc1F)N1CC(=O)N2CCCC[C@H]2C1` (single isomer, unassigned) [92 (ZZ1)] yielded an IC50 (PARP-1) of less than 5 nM and a CC50 [1] of less than 5000 nM.
Work on `O=C(c1cc(Cc2cc(C(F)(F)F)c(=O)[nH]n2)ccc1F)N1CC(=O)N2CCCC[C@@H]2C1` (single isomer, unassigned) [92 (ZZ2)] yielded an IC50 (PARP-1) of 5 to 25 nM and a CC50 [1] of 50 to 500 nM.
`Cc1c(Cc2ccc(F)c(C(=O)N3CC(=O)N(c4ccccc4)[C@H](C)C3)c2)n[nH]c(=O)c1C` (single isomer, unassigned) [Example 78 (LL4B)] showed an IC50 (PARP-1) of less than 5 nM and a CC50 [1] of less than 50 nM.
`Cc1c(Cc2ccc(F)c(C(=O)N3CCN(c4ccccn4)C(=O)C3)c2)n[nH]c(=O)c1C` [Example 31, 3-{4-Fluoro-3-[(3-oxo-4-pyridin-2-ylpiperazin-1-yl)carbonyl]benzyl}-4,5-dimethyl-6-oxo-1,6-dihydropyridazin-1-ium trifluoroacetate] gave an IC50 (PARP-1) of 5 to 25 nM and a CC50 [1] of less than 5000 nM.
With `Cc1c(Cc2ccc(F)c(C(=O)N3CC(=O)N4CCCCC4C3)c2)n[nH]c(=O)c1C` (centres unmarked) [Example 32, 6-{4-Fluoro-3-[(4-oxooctahydro-2H-pyrido[1,2-a]pyrazin-2-yl)carbonyl]benzyl}-4,5-dimethyl-3-oxo-2,3-dihydropyridazin-1-ium trifluoroacetate] the IC50 (PARP-1) was 5 to 25 nM and the CC50 [1] was less than 50 nM.
`O=C(c1cc(Cc2cc(C(F)(F)F)c(=O)[nH]n2)ccc1F)N1CCN(C2CCCC2)C(=O)C1` [Example 33, 6-{3-[(4-Cyclopentyl-3-oxopiperazin-1-yl)carbonyl]-4-fluorobenzyl}-3-oxo-4-(trifluoromethyl)-2,3-dihydropyridazin-1-ium trifluoroacetate] showed an IC50 (PARP-1) of less than 5 nM and a CC50 [1] of 50 to 500 nM.
`Cc1c(Cc2ccc(F)c(C(=O)N3CCN(C4CCCCC4)C(=O)C3C)c2)n[nH]c(=O)c1C` (centres unmarked) [Example 35, 6-{3-[(4-Cyclohexyl-2-methyl-3-oxopiperazin-1-yl)carbonyl]-4-fluorobenzyl}-4,5-dimethyl-3-oxo-2,3-dihydropyridazin-1-ium trifluoroacetate] gave an IC50 (PARP-1) of 5 to 25 nM and a CC50 [1] of less than 5000 nM.
`Cc1c(Cc2ccc(F)c(C(=O)N3CCC(=O)N(C(C)C)CC3)c2)n[nH]c(=O)c1C` [Example 36, 6-{4-Fluoro-3-[(4-isopropyl-5-oxo-1,4-diazepan-1-yl)carbonyl]benzyl}-4,5-dimethyl-3-oxo-2,3-dihydropyridazin-1-ium trifluoroacetate] showed an IC50 (PARP-1) of 5 to 25 nM and a CC50 [1] of less than 5000 nM.
`Cc1c(Cc2ccc(F)c(C(=O)N3CCN(c4cccnc4)C(=O)C3)c2)n[nH]c(=O)c1C` [Example 38, 6-{4-Fluoro-3-[(3-oxo-4-pyridin-3-ylpiperazin-1-yl)carbonyl]benzyl}-4,5-dimethylpyridazin-3(2H)-one] showed an IC50 (PARP-1) of less than 5 nM and a CC50 [1] of 50 to 500 nM.
Compound `CCc1c(Cc2ccc(F)c(C(=O)N3CCN(C4CCCCC4)C(=O)C3)c2)n[nH]c(=O)c1C(F)(F)F` [Example 39, 6-{3-[(4-Cyclohexyl-3-oxopiperazin-1-yl)carbonyl]-4-fluorobenzyl}-5-ethyl-4-(trifluoromethyl)pyridazin-3(2H)-one trifluoroacetate] has an IC50 (PARP-1) of less than 5 nM and a CC50 [1] of less than 50 nM.
With `Cc1c(Cc2ccc(F)c(C(=O)N3CCN(c4ccc(F)cc4)C(=O)C3)c2)n[nH]c(=O)c1C` [Example 40, 6-(4-Fluoro-3-{[4-(4-fluorophenyl)-3-oxopiperazin-1-yl]carbonyl}benzyl)-4,5-dimethyl-3-oxo-2,3-dihydropyridazin-1-ium trifluoroacetate] the IC50 (PARP-1) was 5 to 25 nM and the CC50 [1] was 50 to 500 nM.
`Cc1c(Cc2ccc(F)c(C(=O)N3CCN(C4CCC(F)(F)CC4)C(=O)C3)c2)n[nH]c(=O)c1C` [Example 48, 6-(3-{[4-(4,4-Difluorocyclohexyl)-3-oxopiperazin-1-yl]carbonyl}-4-fluorobenzyl)-4,5-dimethyl-3-oxo-2,3-dihydropyridazin-1-ium trifluoroacetate] was tested, and the IC50 (PARP-1) was 5 to 25 nM and the CC50 [1] was 50 to 500 nM.
In the case of `Cc1c(Cc2ccc(F)c(C(=O)N3CCN(C4CCC(F)(F)C4)C(=O)C3)c2)n[nH]c(=O)c1C` (centres unmarked) [Example 49, 6-(3-{[4-(3,3-Difluorocyclopentyl)-3-oxopiperazin-1-yl]carbonyl}-4-fluorobenzyl)-4,5-dimethyl-3-oxo-2,3-dihydropyridazin-1-ium trifluoroacetate], the IC50 (PARP-1) is reported as less than 5 nM and the CC50 [1] is reported as less than 50 nM.
`Cc1c(Cc2ccc(F)c(C(=O)N3CCN(C4CCC(C)(C)CC4)C(=O)C3)c2)n[nH]c(=O)c1C` [Example 50, 6-(3-{[4-(4,4-Dimethylcyclohexyl)-3-oxopiperazin-1-yl]carbonyl}-4-fluorobenzyl)-4,5-dimethyl-3-oxo-2,3-dihydropyridazin-1-ium trifluoroacetate] was tested, and the IC50 (PARP-1) was 5 to 25 nM and the CC50 [1] was less than 50 nM.
`Cc1c(Cc2ccc(F)c(C(=O)N3CCN(C4CCCC(C)(C)C4)C(=O)C3)c2)n[nH]c(=O)c1C` (centres unmarked) [Example 51, 6-(3-{[4-(3,3-Dimethylcyclohexyl)-3-oxopiperazin-1-yl]carbonyl}-4-fluorobenzyl)-4,5-dimethyl-3-oxo-2,3-dihydropyridazin-1-ium trifluoroacetate] was tested, and the IC50 (PARP-1) was 5 to 25 nM and the CC50 [1] was 50 to 500 nM.
In the case of `Cc1c(Cc2ccc(F)c(C(=O)N3CCN(C45CC(C4)C5)C(=O)C3)c2)n[nH]c(=O)c1C` [Example 52, 6-{3-[(4-Bicyclo[1.1.1]pent-1-yl-3-oxopiperazin-1-yl)carbonyl]-4-fluorobenzyl}-4,5-dimethyl-3-oxo-2,3-dihydropyridazin-1-ium trifluoroacetate], the IC50 (PARP-1) is reported as 5 to 25 nM and the CC50 [1] is reported as 50 to 500 nM.
Work on `Cc1c(Cc2ccc(F)c(C(=O)N3CCN(CC4CCCc5ccccc54)C(=O)C3)c2)n[nH]c(=O)c1C` (centres unmarked) [Example 53, 6-(4-Fluoro-3-{[3-oxo-4-(1,2,3,4-tetrahydronaphthalen-1-ylmethyl)piperazin-1-yl]carbonyl}benzyl)-4,5-dimethyl-3-oxo-2,3-dihydropyridazin-1-ium trifluoroacetate] yielded an IC50 (PARP-1) of 5 to 25 nM and a CC50 [1] of 50 to 500 nM.
Compound `Cc1c(Cc2ccc(F)c(C(=O)N3CCN(C(C)c4nc(C(C)C)no4)C(=O)C3)c2)n[nH]c(=O)c1C` (centres unmarked) [Example 54, 6-[4-Fluoro-3-({4-[1-(3-isopropyl-1,2,4-oxadiazol-5-yl)ethyl]-3-oxopiperazin-1-yl}carbonyl)benzyl]-4,5-dimethyl-3-oxo-2,3-dihydropyridazin-1-ium trifluoroacetate] has an IC50 (PARP-1) of less than 5 nM and a CC50 [1] of 50 to 500 nM.
`Cc1c(Cc2ccc(F)c(C(=O)N3CC(=O)N(C4CCCCC4)CC3(C)C)c2)n[nH]c(=O)c1C` [Example 93, 3-{3-[(4-Cyclohexyl-2,2-dimethyl-5-oxopiperazin-1-yl)carbonyl]-4-fluorobenzyl}-4,5-dimethyl-6-oxo-1,6-dihydropyridazin-1-ium trifluoroacetate] gave an IC50 (PARP-1) of 25 to 150 nM.
`CCN1CCN(C(=O)c2cc(Cc3n[nH]c(=O)c(C(F)(F)F)c3C)ccc2F)CC1=O` [Example 143, 6-{3-[(4-Ethyl-3-oxopiperazin-1-yl)carbonyl]-4-fluorobenzyl}-5-methyl-4-(trifluoromethyl)pyridazin-3(2H)-one] was tested, and the IC50 (PARP-1) was 5 to 25 nM.
